Measurements published in article PMC8698070, “The Zoonotic Helminth Parasite Fasciola hepatica: Virulence-Associated Cathepsin B and Cathepsin L Cysteine Peptidases Secreted by Infective Newly Excysted Juveniles (NEJ)” (Animals : an Open Access Journal from MDPI, 2021).
Several values for one entry are separate records, joined by “and”; a condition that tells them apart may be missing. Equal entries are not always repeated. Entries after “also recorded” stand apart in the source; their conditions may differ. Where two headings read alike, the source gives them in different places. Where a SMILES comes first, the peptide text is derived from it. The star is where a group is joined. Cbz = O=C(OCc1ccccc1)*

Assays:
[1] = molecular target: FhCB1 (Fasciola hepatica, UniProt Q8I7B2); assay: Inhibition of recombinant FhCB1, fluorogenic substrate assay (Z-Phe-Arg-AMC); assay type: biochemical; details: for Ki / inhibition constant Ki: recombinant FhCB1 140 nM, 30 min pre-incubation, substrate Z-Phe-Arg-AMC at KM, optimum pH, ± SEM; for Ki: read-out: inhibition constant Ki; for inhibition of enzymatic activity (inhibitor screen, Figure 5), in words: FhCB1, inhibitor 1000-15 nM
Chain of FhCB1 (Q8I7B2 entry or part of it): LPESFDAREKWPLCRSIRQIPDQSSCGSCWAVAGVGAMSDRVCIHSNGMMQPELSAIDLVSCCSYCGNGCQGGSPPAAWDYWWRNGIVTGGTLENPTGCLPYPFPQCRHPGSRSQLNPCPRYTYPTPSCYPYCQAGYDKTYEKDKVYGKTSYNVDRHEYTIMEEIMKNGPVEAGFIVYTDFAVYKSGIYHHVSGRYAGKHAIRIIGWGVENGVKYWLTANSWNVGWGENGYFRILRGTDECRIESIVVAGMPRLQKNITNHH
Description: (§1) Recombinant peptidases were assayed for enzymatic activity using a fluorogenic substrate assay. The reactions were carried out in 0.1 M C-P buffer (pH 7.0) with 1 mM DTT in a final volume of 200 μL, in a black 96-well plate. Each well contained activated enzyme (140 nM) and 20 μM fluorogenic substrate, which was added to start the reaction. All assays were run in triplicate at 37 °C for 1 h. Enzyme activity was monitored by rate of hydrolysis and subsequent release of the AMC group on the synthetic peptide substrates at an excitation wavelength of 370 nm and an emission wavelength of 460 nm, as relative fluorescence units (RFU), in a PolarStar Omega Spectrophotometer (BMG Labtech, Aylesbury, UK). All data were plotted and analysed using MARS Data Analysis Software (BMG Labtech, UK) and GraphPad Prism version 5.
(§2) Commercially available inhibitors of cathepsin B (Ca074 and Ca074-OMe), cathepsin L (L, L1, LII, LIII and LIV), cathepsin K (KI, KII and KIII) and cathepsin S were purchased from Merck Millipore (Cork, Ireland; Supplementary Figure S2). The broad-spectrum papain peptidase inhibitor Z-Phe-Ala-FMK was purchased from Enzo Life Sciences (Exeter, UK). These were used to determine and compare the inhibition constant (Ki) against the recombinant FhCBs and FhCL3. All the assays were carried out in 0.1 M C-P buffer with 1 mM DTT and 0.01% Brij® L23, at the pH corresponding to the optimum for each enzyme in a total 200 µL reaction volume. The peptidases (140 nM) were pre-incubated with the inhibitor (1000-15 nM) at room temperature, for 30 min, before starting the reaction by the addition of the substrate that was optimal for each enzyme (FhCB1, Z-Phe-Arg-AMC; FhCB2 and FhCB3, Z-Val-Ile-Arg-AMC; FhCL3, Z-Gly-Pro-Arg-AMC). Substrate concentrations were equal to KM (shown in Table 1) and the apparent inhibition constant (Ki^app) values were calculated with GraphPad Prism 5, using the Morrison equation for tight binding inhibition (Equation (3)). For competitive inhibitors, such as those used in this study, Ki^app was fitted to a second equation (Equation (4)) from which Ki can be determined. (3) vi/vo=1−([E])+[I]+Kiapp)−([E]+[I]+Kiapp)^2−4[E][I] /2[E] (4) Kiapp=Ki(1+[S]/KM)

[2] = test system: F. hepatica metacercariae; assay: Excystment of F. hepatica metacercariae in vitro; assay type: cell-based, Fasciola hepatica; details: 100 μM inhibitor, 3 h, 37 °C, 50 metacercariae per well; vs DMSO control
Description: F. hepatica metacercariae (Italian isolate; Ridgeway Research, Saint Briavels, UK) were prepared for excystment as previously described by Robinson et al.. To verify the effect of the cathepsin peptidase inhibitors on the ability of the metacercariae to excyst, 50 metacercariae per well were placed into a 24-well plate and 1 mL of excystment medium (0.6% sodium bicarbonate, 0.45% sodium chloride, 0.4% sodium tauroglycocholate, 0.025 N HCl and 0.4% L-cysteine) supplemented with 100 μM of the inhibitor was added to the well. As controls, we used PBS and dimethylsulfoxide (DMSO, 1:100; Sigma-Aldrich) alone. The plate was then incubated at 37 °C with 5% CO2, for 3 h to allow metacercarial excystment. Using a light microscope (25× magnification), the number of excysted NEJ was determined.

[3] = molecular target: FhCL3 (Fasciola hepatica, UniProt A0A879R2T5); assay: Inhibition of recombinant FhCL3, fluorogenic substrate assay (Z-Gly-Pro-Arg-AMC); assay type: biochemical; details: for Ki / inhibition constant Ki: recombinant FhCL3 140 nM, 30 min pre-incubation, substrate Z-Gly-Pro-Arg-AMC at KM, optimum pH, ± SEM; for inhibition of enzymatic activity (inhibitor screen, Figure 5), in words: FhCL3, inhibitor 1000-15 nM
Chain of FhCL3 (A0A879R2T5 entry or part of it): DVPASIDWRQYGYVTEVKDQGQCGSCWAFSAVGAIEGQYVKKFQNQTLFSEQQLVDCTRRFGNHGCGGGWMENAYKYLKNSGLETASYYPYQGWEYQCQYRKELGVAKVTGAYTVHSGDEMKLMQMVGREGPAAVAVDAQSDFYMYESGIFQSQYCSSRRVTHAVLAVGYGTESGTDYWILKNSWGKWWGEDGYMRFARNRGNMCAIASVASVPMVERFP
Description: as §1, §2

[4] = molecular target: FhCB3 (Fasciola hepatica, UniProt A7UNB2); assay: Inhibition of recombinant FhCB3, fluorogenic substrate assay (Z-Val-Ile-Arg-AMC); assay type: biochemical; details: for inhibition of enzymatic activity (inhibitor screen, Figure 5), in words: FhCB3, inhibitor 1000-15 nM
Chain of FhCB3 (A7UNB2 entry or part of it): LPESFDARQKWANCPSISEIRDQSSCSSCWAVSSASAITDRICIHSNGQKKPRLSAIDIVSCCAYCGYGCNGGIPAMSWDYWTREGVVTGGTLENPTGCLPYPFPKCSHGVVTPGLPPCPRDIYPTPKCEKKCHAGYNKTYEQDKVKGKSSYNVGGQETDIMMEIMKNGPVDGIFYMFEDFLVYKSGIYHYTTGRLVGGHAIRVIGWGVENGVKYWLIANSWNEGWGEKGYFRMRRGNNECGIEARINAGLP
Description: as §1, §2

[5] = test system: F. hepatica metacercariae; set-up: method as in PMID 19443417; details: final concentration of 1 mM; cited from earlier work
[6] = molecular target: T1, cathepsin L1 (HsCL1) (Homo sapiens, UniProt P07711); assay: Inhibitor screen against human cathepsin L1 control; assay type: biochemical
T1 construct: purchased Sigma-Aldrich; host or cells: human embryonic kidney cells
T1 sequence (P07711 114-333): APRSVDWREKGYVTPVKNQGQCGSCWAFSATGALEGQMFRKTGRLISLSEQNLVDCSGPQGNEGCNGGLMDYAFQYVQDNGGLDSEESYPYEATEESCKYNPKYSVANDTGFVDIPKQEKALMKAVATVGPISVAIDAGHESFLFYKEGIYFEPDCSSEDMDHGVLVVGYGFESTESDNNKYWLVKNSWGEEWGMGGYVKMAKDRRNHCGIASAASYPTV
Excerpt: (§3) The Schistosoma mansoni cathepsin B1 (SmCB1) was also produced in our laboratory using P. pastoris as described above. The human cathepsin B (HsCB) and cathepsin L1 (HsCL1) were produced in human embryonic kidney cells (Sigma-Aldrich).
as §2
A panel of 12 commercially available cysteine peptidase inhibitors that preferentially target mammalian cathepsin B (Ca074 and Ca074-OMe), cathepsin L (L, L1, LII, LIII and LIV) cathepsin S (S) and cathepsin K (KI, KII and KIII) were screened against the FhCBs, FhCL3 and, as controls, HsCB and HsCL1. The broad-range cysteine peptidase inhibitor Z-Phe-Ala-FMK was also included (Figure 5).
(§4) Figure 5 Profile of inhibition of FhCB1, FhCB2, FhCB3 and FhCL3. Commercially available inhibitors of cathepsin B (Ca074 and Ca07a-OMe), cathepsin L (L, L1, LII, LIII and LIV), cathepsin K (KI, KII and KIII), cathepsin S and the broad-spectrum papain peptidase inhibitor Z-Phe-Ala-FMK (A–L) were used to determine and compare the inhibition constant against recombinants FhCB1, FhCB2, FhCB3, FhCL3, HsCB and HsCL1. Activity is represented as the percentage of enzymatic activity observed by hydrolysis of a fluorogenic quenched peptide substrate following a pre-incubation with inhibitor in relation to the activity of the enzyme alone. Error bars indicate standard deviation of three replicates.

[7] = molecular target: FhCB2 (Fasciola hepatica, UniProt A5X493); assay: Inhibition of recombinant FhCB2, fluorogenic substrate assay (Z-Val-Ile-Arg-AMC); assay type: biochemical; details: for inhibition of enzymatic activity (inhibitor screen, Figure 5), in words: FhCB2, inhibitor 1000-15 nM; for Ki / inhibition constant Ki: recombinant FhCB2 140 nM, 30 min pre-incubation, substrate Z-Val-Ile-Arg-AMC at KM, optimum pH, ± SEM; for Ki: read-out: inhibition constant Ki
Chain of FhCB2 (A5X493 entry or part of it): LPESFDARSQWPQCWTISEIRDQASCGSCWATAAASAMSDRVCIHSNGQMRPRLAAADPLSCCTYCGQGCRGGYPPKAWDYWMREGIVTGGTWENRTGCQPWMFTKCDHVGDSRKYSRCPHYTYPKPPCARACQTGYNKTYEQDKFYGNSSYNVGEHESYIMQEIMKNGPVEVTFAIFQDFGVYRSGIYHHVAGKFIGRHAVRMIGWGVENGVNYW
Description: as §1, §2

[8] = molecular target: T2, human cathepsin B (HsCB) (Homo sapiens, UniProt P07858); assay: Inhibitor screen against human cathepsin B control; assay type: biochemical
T2 construct: purchased Sigma-Aldrich; host or cells: human embryonic kidney cells
Excerpt: as §3
as §2, with “All the assays were carried out in 0.1 M C-P buffer with 1 mM DTT and 0.01% Brij® L23, at the pH corresponding to the optimum for each enzyme in a total 200 µL reaction volume. The peptidases (140 nM) were pre-incubated with the inhibitor (1000-15 nM) at room temperature, for 30 min, before starting the reaction by the addition of the substrate that was optimal for each enzyme (FhCB1, Z-Phe-Arg-AMC; FhCB2 and FhCB3, Z-Val-Ile-Arg-AMC; FhCL3, Z-Gly-Pro-Arg-AMC).” left out
The broad-range cysteine peptidase inhibitor Z-Phe-Ala-FMK was also included (Figure 5).
as §4, with “Activity is represented as the percentage of enzymatic activity observed by hydrolysis of a fluorogenic quenched peptide substrate following a pre-incubation with inhibitor in relation to the activity of the enzyme alone.” left out

[9] = molecular target: human cathepsins S; set-up: method as in PMID 10964677; details: human cathepsin S; cited from earlier work
[10] = molecular target: human cathepsins B; set-up: method as in PMID 10964677; details: human cathepsin B; cited from earlier work
[11] = test system: F. hepatica NEJ; assay: Viability of NEJ in culture; assay type: cell-based, Fasciola hepatica; details: 100 μM inhibitor, 24 h culture, compared to the DMSO group
Description: NEJ were washed three times in a culturing medium (RPMI-1640 medium supplemented with 30 mM HEPES, 0.1% glucose, 10% foetal bovine serum and 50 μg/mL of gentamicin) and their viability assessed by culturing the parasites in 1 mL of culture medium containing 100 μM of the inhibitor at 5% CO2 at 37 °C for 24 h. After incubation, the number of moribund/dead parasites were counted using a light microscope (25× magnification). The criteria used to assess the NEJ viability were loss of motility and peristaltic movement and any obvious damage to the tegument or internal structures, as previously standardized by. The experiments were performed in triplicate. The average of the replicate experimental data was subjected to a two-way ANOVA comparing the values obtained with each inhibitor against the mean of the DMSO control group, with minimum 95% confidence intervals. All the statistical analyses were performed using GraphPad Prism 5.

[12] = test system: NEJ; set-up: method as in PMID 19401154; details: concentration of 6.25 μM; cited from earlier work
[13] = read-out: inhibition constant Ki
[14] = recombinant FhCB3 140 nM, 30 min pre-incubation, substrate Z-Val-Ile-Arg-AMC at KM, optimum pH, ± SEM, read-out: inhibition constant Ki
[15] = recombinant FhCB3 140 nM, 30 min pre-incubation, substrate Z-Val-Ile-Arg-AMC at KM, optimum pH, ± SEM

C[C@H](NC(=O)[C@H](Cc1ccccc1)NC(=O)OCc1ccccc1)C(=O)CF [Z-Phe-Ala-FMK]
Ki [1]: < 15 nM and 3 nM | reduction of metacercariae excystment [2]: more than 50% | Ki ([3]; inhibition constant Ki): 15 ± 5.95 nM | Ki [4]: 246 ± 55.7 nM | effect on metacercariae excystment [5]: completely prevented

O=CC(Cc1ccc(O)cc1)NC(=O)C(Cc1ccccc1)NC(=O)OCc1ccccc1 (stereo not drawn) [LII] (Cbz-Phe-Tyr-aldehyde; configuration not given here)
inhibition of enzymatic activity (inhibitor screen, Figure 5), in words [6]: specificity for HsCL1 over HsCBs; also recorded: inhibited | inhibition of enzymatic activity (inhibitor screen, Figure 5), in words [7]: most effective at reducing the enzymatic activity | Ki [7]: 1840 ± 77 nM | inhibition of enzymatic activity (inhibitor screen, Figure 5), in words [1]: most effective at reducing the enzymatic activity | inhibition of enzymatic activity (inhibitor screen, Figure 5), in words [3]: most effective at reducing the enzymatic activity | Ki [3, 13]: 8 ± 0.6 nM | inhibition of enzymatic activity (inhibitor screen, Figure 5), in words [8]: inhibited | inhibition of enzymatic activity (inhibitor screen, Figure 5), in words [4]: most effective at reducing the enzymatic activity | Ki [4, 14]: 211 ± 34.8 nM

CC(C)C[C@H](NC(=O)[C@H](Cc1ccccc1)NC(=O)OCc1ccccc1)C(=O)C=O [S]
Ki [9]: 0.185 nM | Ki [1]: 14 ± 2.42 nM | Ki [10]: 76 nM | Ki ([3]; inhibition constant Ki): 35 ± 2.4 nM | reduction of NEJ viability (survival) [11]: ~ 55% | Ki [4]: 696 ± 94.8 nM

CCCNC(=O)[C@H]1O[C@@H]1C(=O)N[C@H](C(=O)N1CCC[C@H]1C(=O)O)[C@@H](C)CC [Ca074]
inhibition of enzymatic activity (inhibitor screen, Figure 5), in words [7]: poor inhibitors; also recorded: very poor inhibitors | inhibition constant Ki [7]: poor inhibition | Ki [7]: 5930 ± 567 nM | inhibition of enzymatic activity (inhibitor screen, Figure 5), in words [1]: poor inhibitors; also recorded: very poor inhibitors | inhibition constant Ki [1]: poor inhibition | Ki [1]: 7320 ± 934 nM | inhibition of enzymatic activity (inhibitor screen, Figure 5), in words [3]: poor inhibitors | inhibition constant Ki [3]: poor inhibition | Ki [3, 13]: 603 ± 133 nM | inhibition of enzymatic activity (inhibitor screen, Figure 5), in words [8]: selective for HsCB compared to HsCL1 | inhibition of enzymatic activity (inhibitor screen, Figure 5), in words [4]: poor inhibitors; also recorded: very poor inhibitors | inhibition constant Ki [4, 15]: poor inhibition | Ki [4, 14]: 540 ± 45.2 nM

CCCNC(=O)[C@H]1O[C@@H]1C(=O)N[C@H](C(=O)N1CCC[C@H]1C(=O)OC)[C@@H](C)CC [Ca074ME]
inhibition of enzymatic activity (inhibitor screen, Figure 5), in words ([7]; listed as Ca074-OMe): poor inhibitors; also recorded: very poor inhibitors | inhibition constant Ki [7]: poor inhibition | inhibition of enzymatic activity (inhibitor screen, Figure 5), in words ([1]; listed as Ca074-OMe): poor inhibitors; also recorded: very poor inhibitors | inhibition constant Ki [1]: poor inhibition | Ki [1]: 5500 ± 1190 nM | inhibition of enzymatic activity (inhibitor screen, Figure 5), in words [3]: poor inhibitors | Ki ([3]; inhibition constant Ki): 249 ± 35.5 nM | inhibition constant Ki [3]: poor inhibition | inhibition of enzymatic activity (inhibitor screen, Figure 5), in words [8]: selective for HsCB compared to HsCL1 | effect on cultured NEJ [12]: sub-lethal effect | Ki [4]: 785 ± 130 nM | inhibition of enzymatic activity (inhibitor screen, Figure 5), in words ([4]; listed as Ca074-OMe): poor inhibitors; also recorded: very poor inhibitors | inhibition constant Ki [4, 15]: poor inhibition
